Results published in publication PMC4467156, “A new chemical inhibitor of angiogenesis and tumorigenesis that targets the VEGF signaling pathway upstream of Ras” (Oncotarget, 2015).

What was measured:
LLC/2 cells = assay: Cell viability WST-1, LLC/2; format: cell-based; conditions: confluent LLC/2, 24 h at 37°C
Experimental: Once they had reached confluency, cells were kept for 24 hours in medium supplemented with 0.5% FCS (LLC/2 and 3T3 cells) or 2.5% FCS (HUVEC and HMVEC-d cells), in the presence of COB223 at different concentrations. WST-1 assay (Roche Diagnostic, Meylan, France) was then performed according to the manufacturer's instructions.

HUVEC cells = assay: 3H-thymidine incorporation, HUVEC; format: cell-based, human; conditions: HUVEC, 24 h
Experimental: (§1) Cells were treated with molecules in complete medium. After 22 h, 1 μCi per well H^3 thymidine was added for 2 hours. Cells are then fixed by 10% trichloroacetic acid and harvested with 0.2N NaOH, 1% SDS. Radioactivity was measured in a beta counter.

LLC/2 tumor = assay: Mouse LLC/2 tumor model; format: in vivo
Experimental: We chose this model because of its rapid growth in syngenic mice and its strong dependence on angiogenesis. LLC/2 cells (10^6 in 50 μL medium) were subcutaneously injected into the right flank of […] mice. Seven days after tumor inoculation, mice were given an intraperitoneal (i.p.) injection of either solvent (1.7% DMSO) or COB223 every other day. Tumor size was measured with calipers, and the volume was calculated according to the formula (L*w^2)/2 where L and […] stand for length and width respectively. All mice were killed 21 days after tumor grafting.
Tumors collected after animal sacrifice were split into two parts and fixed either in 4% paraformaldehyde (v/v) or in formalin fixative for 24 h at 4°C and embedded in paraffin and then cut into 7 μm sections. Sections were stained using specific antibodies and the avidin–biotin immunoperoxidase detection method. Endogenous peroxidase activity was quenched by pretreatment with 3% (v/v) hydrogen peroxide in methanol for 20 min. For endothelial immunohistochemistry detection, CD31 antibody (MEC13.3, BD Pharmingen) was incubated for 2 h at room temperature. The tissue sections were subsequently washed three times with PBS and incubated with biotinylated rabbit anti-rat IgG (1:250 dilution in blocking solution; Sigma-Aldrich, Saint-Quentin Fallavier, France) for 1 h at room temperature. After three PBS washes, the slides were incubated with an avidin: biotin complex (Vectastain ABC kit; Vector Laboratories, Burlingame, CA) for 45 minutes. After a final PBS wash, the immunoreactive proteins were visualized after the addition of 3,3′-diaminobenzidine (Dako, Trappes, France) for 2 min and then counterstained with hematoxylin. Control sections were treated without primary antibody.

HMVECd cells = assay: 3H-thymidine incorporation, HMVECd; format: cell-based, human; conditions: 24 h
Experimental: as §1

3T3 cells = assay: 3H-thymidine incorporation, 3T3; format: cell-based; conditions: 3T3 fibroblasts
Experimental: as §1

ERK1/2 phosphorylation = assay: Western blot, ERK1/2 phosphorylation in HUVEC; format: cell-based, human
Experimental: Figure 9 Effect of COB223 on growth factor-induced VEGF-R2, MEK and ERK phosphorylations (A) Serum-starved HUVEC cells were incubated for 15 min in the presence of either 10 ng/mL VEGF-A or 20 ng/mL FGF-2 and in the absence or the presence of 25 μM COB223. The phosphorylations of VEGFR2 on tyrosine 1175 or tyrosine 1214, of MEK and ERK1/2 were then analyzed by Western blot analysis of the cell lysates as described in Material and Methods. Western blots for total VEGFR2, MEK and ERK1/2 were used as loading controls. The blots shown in Figure 9A were obtained in one representative experiment. (B) The hybridization signals observed in 5 similar but independent experiments were quantitated and the ratios between phospho-VEGFR2(Y1175) or (Y1214) and VEGFR2 signals were normalized to the value observed in the absence of COB223. (C) The hybridization signals observed in 5 similar but independent experiments were quantitated and the ratios between phospho-ERK1/2 and ERK1/2 and between phospho-MEK and MEK were normalized to the values observed in the absence of COB223. Additional experiments performed with 10% fetal calf serum (FCS) as a mitogen were included in this analysis. * : p < 0.05; ** : p < 0.01
Figure 10 Effect of PKC inhibitors on PMA-, VEGF- and FGF2-induced ERK phoshorylation (A) Serum-starved HUVEC cells were incubated for 15 min in the presence of 10 ng/mL VEGF-A or 20 ng/mL FGF-2 and in the absence or the presence of 25 μM COB223 or 5 μM Gö6983 and 5 μM Gö6976. The phosphorylation ERK1/2 was then analyzed by Western blot analysis of the cell lysates as described in Material and Methods. Western blots for total ERK1/2 were used as loading controls. (B) Serum-starved HUVEC cells were incubated for 5 min in the presence of 200 nM of PMA and in the absence or the presence of 25 μM COB223 or 5 μM Gö6983 and 5 μM Gö6976. The hybridization signals observed were quantitated and the ratio between phospho-ERK1/2 and ERK1/2 was normalized to the values observed in the absence of COB223. Similar results were obtained in 2 independent experiments.
Serum-starved HUVEC cells were incubated for 15 min in the presence of either 10 ng/mL VEGF-A or 20 ng/mL FGF-2 and in the absence or the presence of indicated concentration of COB223. COB223 was incubated 15 min prior to stimulation. Cells were lysed in RIPA buffer ( Tris HCl pH 7.4 10 mM, NaCl 150 mM, SDS 0.1%, Na Deoxycholate 0.5%, EDTA 1 mM, Triton X100 1% and protease inhibitor cocktail (Sigma) for protein extraction. After fractionation of proteins on a 4–15% SDS-PAGE gel and blotting to a nitrocellulose membrane, immunoblotting detection of proteins was done using indicated antibodies according to manufacturer's instruction.

PKCβI = PKCβI (Homo sapiens, UniProt P05771); assay: In vitro kinase assay PKCβI; format: biochemical; conditions: concentrations up to 50 μM
Chain of PKCβI (P05771 whole entry): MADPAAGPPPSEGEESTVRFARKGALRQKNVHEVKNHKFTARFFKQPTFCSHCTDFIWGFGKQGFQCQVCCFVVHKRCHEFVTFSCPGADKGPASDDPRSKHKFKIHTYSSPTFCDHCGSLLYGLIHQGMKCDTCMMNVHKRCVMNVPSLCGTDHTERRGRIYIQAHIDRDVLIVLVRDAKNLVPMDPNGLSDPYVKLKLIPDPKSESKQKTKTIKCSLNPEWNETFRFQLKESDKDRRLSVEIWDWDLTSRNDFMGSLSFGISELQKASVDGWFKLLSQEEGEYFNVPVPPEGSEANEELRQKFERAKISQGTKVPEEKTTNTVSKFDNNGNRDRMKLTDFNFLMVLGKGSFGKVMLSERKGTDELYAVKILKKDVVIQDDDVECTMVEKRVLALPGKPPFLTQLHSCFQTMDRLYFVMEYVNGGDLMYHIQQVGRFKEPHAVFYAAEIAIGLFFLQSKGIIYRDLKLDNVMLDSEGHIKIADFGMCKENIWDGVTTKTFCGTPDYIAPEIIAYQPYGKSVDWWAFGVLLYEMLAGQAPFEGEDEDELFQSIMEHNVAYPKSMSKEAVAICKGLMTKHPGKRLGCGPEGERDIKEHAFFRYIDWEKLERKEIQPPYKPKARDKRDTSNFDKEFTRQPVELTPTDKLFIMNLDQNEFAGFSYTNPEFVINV
Experimental: We first wondered whether COB223 required to be internalized to exert its biological effect. For this, we synthesized a covalent complex between BSA and COB223 and purified it. […] In vitro kinase assays were performed with a panel of purified protein-kinases involved in mitogenic signaling, including VEGFR2, FGFR1, FGFR2, PDGFRß, Met, Raf, MEK1, ERK1, ERK2, PKCα, PKCβI, PKCβII, PKCζ as indicated in Table 2. […] We then analyzed the effect of COB223 on VEGF-induced phosphorylations of VEGFR2, MEK and ERK1/2 (Figure 9). […] (Figure 9A, 9B). […] It was also specific of the p42/p44 MAP kinase pathway as activation of p38 MAP kinase phosphorylation in HUVEC cells by VEGF or serum was unaffected by COB223 (data not shown). The activation of src phosphorylation by VEGF in HUVECs was also unaffected by COB223 (data not shown).

[1] = non-necrotic part of treated tumors

## CN(C)c1cccc2c(S(=O)(=O)NCCCN3CCN(CCCNC(=O)OC(C)(C)C)CC3)cccc12 [COB223, tert-Butyl 3-(4-(3-(5-(dimethylamino)naphthalene-1-sulfonamido)propyl)piperazin-1-yl) propylcarbamate]
LLC/2 cells
  cytotoxic concentrations: > 50 µM
HUVEC cells
  concentrations inhibiting thymidine incorporation: above 5 μM
LLC/2 tumor; COB223-treated tumors (untreated 20%)
  tumors with necrotic areas larger than 15% of their surface: 60%
LLC/2 tumor; [1]
  density of the microvessels (CD31): significant decrease
  size (luminal surface) of the microvessels (CD31): significant decrease
LLC/2 tumor; tumor sections
  number of phospho-ERK1/2 and phospho-histone H3 positive cells: significantly decreased
HMVECd cells
  concentrations inhibiting thymidine incorporation: above 5 μM
3T3 cells
  effect on cell proliferation: no effect
ERK1/2 phosphorylation; HUVEC, 10 ng/mL VEGF-A 15 min, 25 μM COB223
  VEGF-induced phosphorylation of ERK1/2: significantly inhibited
ERK1/2 phosphorylation; HUVEC, 200 nM PMA 5 min, 25 μM COB223
  phosphorylation of ERK1/2 induced by the PKC activator PMA: inhibited
ERK1/2 phosphorylation; dose-response study
  concentration at which inhibition of MAP kinase phosphorylation was detectable: 5 µM
  concentration at which inhibition of MAP kinase phosphorylation was statistically significant: 20 µM
PKCβI
  kinase inhibition: None of them was inhibited
